PubChem BioAssay (NCI)
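1) Cells in 96-well plates. 2) Compound, 48 h, 5 concentrations. 3) Linear interpolation between surrounding doses. 4) Unreached endpoint = highest concentration. TGI denotes the concentration required for complete inhibition of growth.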

Key:
Assay in all cases: NCI-60 cell line screen, 48 h
[1] = system: NCI-H522 lung
[2] = system: T-47D breast
[3] = system: MALME-3M melanoma
[4] = system: MDA-N
[5] = system: HS 578T breast
[6] = system: KM12 colon
[7] = system: MDA-MB-231 breast
[8] = system: HL-60(TB) leukemia
[9] = system: EKVX NSCLC
[10] = system: OVCAR-4 ovarian
[11] = system: M14 melanoma
[12] = system: DU-145 prostate
[13] = system: A498 renal
[14] = system: UO-31 renal
[15] = system: U251 CNS
[16] = system: SK-MEL-2 melanoma
[17] = system: SF-268 CNS
[18] = system: SK-OV-3 ovarian
[19] = system: SR leukemia

Row | SMILES | TGI [1] [µM] | TGI [2] [µM] | TGI [3] [µM] | TGI [4] [µM] | TGI [5] [µM] | TGI [6] [µM] | TGI [7] [µM] | TGI [8] [µM] | TGI [9] [µM] | TGI [10] [µM] | TGI [11] [µM] | TGI [12] [µM] | TGI [13] [µM] | TGI [14] [µM] | TGI [15] [µM] | TGI [16] [µM] | TGI [17] [µM] | TGI [18] [µM] | TGI [19] [µM]
1 | Cc1ccc(C(=O)Nc2ccc(CP(=O)(O)O)cc2CP(=O)(O)O)cc1NC(=O)c1cccc(N)c1 | > 100 | > 100 | > 100 | > 100 | > 100 | > 100 | > 100 | > 100 | > 100 | > 100 | > 100 | > 100 | > 100 | > 100 | > 100 | > 100 | > 100 | > 100 | –
2 | CC1=C2C(=O)NN=C2CCN1c1ccc(Br)cc1 | > 100 | > 100 | > 100 | > 100 | > 100 | > 100 | > 100 | > 100 | > 100 | > 100 | > 100 | > 100 | > 100 | > 100 | > 100 | > 100 | > 100 | > 100 | –
3 | COc1cc(O)c(/C=N/N=C(\N)NO)c(OC)c1 | > 10 | > 10 | > 10 | > 10 | > 10 | > 10 | > 10 | > 10 | > 10 | > 10 | > 10 | > 10 | > 10 | > 10 | > 10 | > 10 | > 10 | > 10 | –
4 | NC(C(F)(F)F)(C(F)(F)F)P(=O)(Cc1ccccc1)Cc1ccccc1 | – | > 100 | > 100 | > 100 | > 100 | > 100 | > 100 | > 100 | > 100 | > 100 | > 100 | > 100 | – | > 100 | > 100 | > 100 | > 100 | > 100 | > 100
5 | O=C(NNC(=S)Nc1ccc(Cl)cc1)c1cc(-c2ccccc2)nc2ccccc12 | 23.2 | 11.6 | 17.5 | 6.5 | 32.4 | 22.5 | 29.4 | – | – | 24.3 | 18.7 | 16.5 | – | 18.1 | 16.1 | 9.89 | 29.6 | 19.8 | 4.72
6 | O=C(O)CN(CCNC(=O)OCC1c2ccccc2-c2ccccc21)CCNC(=O)OCC1c2ccccc2-c2ccccc21 | 32.3 | 49.9 | 38.9 | 36.7 | > 100 | 34.7 | 31.9 | 50.1 | 52.5 | 64.4 | 73.4 | 35.8 | – | 37.5 | 38.4 | 46.6 | 39.8 | 70.6 | 50.2
7 | O=C(CC(=O)n1nc(-c2ccccc2)c(N=Nc2ccccc2C(=O)O)c1-c1ccccc1)Nc1ccc(Cl)cc1 | – | > 100 | > 100 | > 100 | > 100 | > 100 | > 100 | 40.9 | > 100 | – | > 100 | – | – | 47.8 | > 100 | > 100 | – | – | 42
8 | NC(=O)N/N=C(\Cc1nc2ccc(Cl)cc2[nH]c1=O)C(=O)Nc1ccc(Cl)cc1Cl | > 100 | > 100 | > 100 | > 100 | > 100 | > 100 | > 100 | > 100 | > 100 | > 100 | > 100 | > 100 | > 100 | > 100 | > 100 | > 100 | > 100 | > 100 | –
9 | NCC1CCN(c2nc3ccccc3c3c2CCCC3)CC1 | 19.8 | 8.81 | 26 | 7.92 | > 100 | 15.9 | 17.2 | 8.13 | 27.7 | 23.2 | 3.71 | 25.9 | 25.7 | 11.9 | 16.2 | 11.3 | 22.7 | 29.6 | –
10 | COc1cc(-c2cc(=O)c3cc4c(cc3[nH]2)OCO4)cc(OC)c1O | > 10 | > 10 | – | > 10 | > 10 | > 10 | > 10 | > 10 | > 10 | > 10 | > 10 | > 10 | – | > 10 | > 10 | > 10 | > 10 | > 10 | > 10
11 | Cc1nnc2n1N=C(c1cc(F)c(Cl)cc1Cl)/C(=C/c1ccc(Cl)cc1)S2 | > 100 | > 100 | 58.9 | 35.4 | > 100 | 25.4 | 47.6 | > 100 | 28.6 | 33.3 | 43 | 48.6 | 41.3 | 27.4 | 38.5 | 26.2 | > 100 | > 100 | –
